One block for each molecule: values may come before it.
Tests used:
[1] = Solubility of cocrystals and their constituents in organic solvents (shake-flask, HPLC); conditions: for solubility at 48 h: organic solvent or mixture, thermodynamic from solid
Description: For the [CBZ + 3AcAmBA] (1:1) cocrystal, methanol was used. For [CBZ + 4AcAmBA] (1:1), all the experiments were performed in acetonitrile. An excess of the solid was placed in an Eppendorf tube, and 2 mL of solvent was added. The resulting suspension was shaken in a ThermoMixer C (Eppendorf, Hamburg, Germany) at 800 rpm for 48 h at the specified temperature. Subsequently, the saturated solution was separated using a 0.22 μm PTEF filter, diluted, and analyzed using HPLC. The solid phases after the experiment were collected and characterized by PXRD. Each experiment was repeated three times.
The HPLC was performed on an LC-20 AD Shimadzu Prominence model (Shimadzu, Kyoto, Japan) equipped with a PDA detector and a Luna C-18 column (150 mm × 4.6 mm i.d., 5 μm particle size, and 100 Å pore size). The column temperature was set to 40 °C. To achieve the proper separation of the cocrystal components, different ratios of the mobile phase, consisting of acetonitrile and a 0.1% aqueous solution of trifluoroacetic acid (35:65 v/v), were used. The flow rate was 1.0 mL·min^−1, and the injection volume was 20 μL. The UV detection of carbamazepine, 2-acetamidobenzoic acid, 3-acetamidobenzoic acid, and 4-acetamidobenzoic acid was carried out at the wavelengths of 285 nm, 249 nm, 220 nm, and 266 nm, respectively.

[2] = design: method as in doi:10.1016/j.molliq.2021.118320; conditions: pH 2.0, 310.2 K; value belongs to the coformer of the cocrystal named in the row; ref [103]; cited from earlier work
[3] = assay type: physicochemical
Description: The saturation shake-flask method was used to measure the aqueous solubility of the CBZ cocrystals in a pH 2.0 buffer solution at the eutectic point, where drug and cocrystal are in equilibrium with the solution. The eutectic point between the cocrystal and the drug was reached by suspending 80 mg of the cocrystal and 30 mg of CBZ in 2 mL of the buffer solution. The obtained suspension was stirred continuously for 72 h at 37.0 ± 0.1 °C. After equilibration, the final pH of the solution was measured. The suspension was diluted with the mobile phase after being filtered through a […] PTEF filter. Concentrations of compounds were analyzed by HPLC. The solid phases after the experiment were characterized by PXRD.
The column temperature was set to 40 °C.

[4] = Cocrystal formation thermodynamics from solubility data (Kf, ΔformG, ΔformH, ΔformS); assay type: physicochemical; conditions: for ΔformH: van't Hoff, 293.15-313.15 K
Source text: It is known that the relative stability of a cocrystal with respect to a physical mixture of the parent constituents at a given temperature can be quantitatively expressed in terms of the free-energy change, ΔformG, of the cocrystallization reaction. Analyzing the temperature dependence of the Gibbs formation energy can provide further information on the enthalpy and entropy contributions to the driving force of the process as well as help to estimate the thermodynamic transition temperature, which determines the stability domains of a cocrystal and its individual constituents. The experimental assessment of ΔformG is based on solubility data for the starting molecules and the corresponding cocrystal in the same solvent at a predetermined temperature using the equation below:(3) ΔformG=−RTlnap,Ax×ap,By/acc,Ax×acc,By=−RTlnap,Ax×ap,By/Ksp=−RTlnKf, where ap,A and ap,B represent the activities of pure A and B compounds in a saturated solution; acc,A and acc,B are the activities of the cocrystal components in a solution, in equilibrium with pure cocrystal; Ksp is the solubility product of a cocrystal; T is the temperature; x and y are the stoichiometric coefficients; and Kf is an equilibrium constant at the experimental temperature.
Using the van’t Hoff expression, the enthalpy of the cocrystallization process, ΔformH, may be estimated by evaluating the Kf values at various temperatures (assuming that ΔformH is a constant within the selected temperature range):(4) dlnKf/d(1/T)=−ΔformH/R
The entropy of cocrystal formation, ΔformS, can be estimated from (5) ΔformS=ΔformH−ΔformG/T
Even though the activities in Equation (3) are usually approximated by the corresponding molar concentration while neglecting the activity coefficients, a more valid approximation implies that the activity coefficients for the two solute species are constant along the cocrystal solubility line and equal to the activity coefficients of the pure components in the saturated solutions in the same solvent and temperature. […] Table S5 contains the solubility values of CBZ, coformers, and the CBZ cocrystals with emodin, paeonol, nicotinamide, and glutaric acid in various organic solvents.

[5] = Preliminary solution stability (congruent/incongruent dissolution) in organic solvents, PXRD of residual phases; assay type: physicochemical
Source text: The most convenient way to determine the solubility product of a cocrystal is to ensure that the solution and the cocrystal are at thermodynamic equilibrium, i.e., that the cocrystal is congruently soluble in the chosen solvent. In this work, acetonitrile was primarily utilized as a medium to carry out solubility experiments. […] (1:1) and [CBZ + 3AcAmBA] […] In the case of [CBZ + 3AcAmBA] (1:1), incongruent solubility of the cocrystal was expected given the high solubility ratio of the components in acetonitrile (Table S6). This is likely to result in an asymmetric ternary phase diagram with a narrow stability region for the [CBZ + 3AcAmBA] (1:1) cocrystal. […] It is reasonable to assume that the poor solution stability of the [CBZ + 2AcAmBA] (1:1) cocrystal is not due to the large solubility difference between CBZ and 2AcAmBA but rather because of the low intrinsic thermodynamic stability of the binary solid form caused by the lack of energy gain associated with cocrystal formation, which leads to a higher solubility in all solvents considered. […] (1:1) cocrystal compared to the parent pure components (~40 °C, Figure S2), implicitly corroborate this supposition. Since no suitable solvent for solubility studies of [CBZ + 2AcAmBA] (1:1) could be found, this system was not further explored. The [CBZ + 3AcAmBA]

[6] = methanol, 293.15 K, value is C∙10^2
[7] = 298.2K, listed as [CBZ+3AcAmBA] (1:1)
[8] = methanol, 298.15 K, value is C∙10^2
[9] = methanol, 303.15 K, value is C∙10^2
[10] = methanol, 308.15 K, value is C∙10^2
[11] = methanol, 313.15 K, value is C∙10^2

SMILES: CC(=O)Nc1ccccc1C(=O)O [Cocrystal 2AcAmBA, 2-acetamidobenzoic acid]
solubility ratio Cp,CBZ/Cp,coformer ([1]; Acetonitrile, Table S6): 5.7
solubility at 48 h ([1]; acetonitrile, 20 °C): 25 ± 0.8 mM
S0(CF), intrinsic solubility of coformer [2]: 11.5 mM

solubility at 48 h ([1]; acetonitrile, 20 °C): 4.3 ± 1 mM
solubility at 48 h ([1]; methanol, 20 °C): 75 ± 0.5 mM
solubility at 48 h ([1]; methanol, 25 °C): 87 ± 0.5 mM
solubility at 48 h ([1]; methanol, 30 °C): 97 ± 0.5 mM
solubility at 48 h ([1]; methanol, 35 °C): 109 ± 0.8 mM
solubility at 48 h ([1]; methanol, 40 °C): 119.5 ± 0.6 mM
Cp∙10^2, solubility of pure component [1, 6]: 7.50±0.05 mol/l
SMILES: CC(=O)Nc1cccc(C(=O)O)c1 [Cocrystal 3AcAmBA, 3-acetamidobenzoic acid]
S0(CF), intrinsic solubility of coformer [2]: 4.1 mM

SMILES: CC(=O)Nc1cccc(C(=O)O)c1.NC(=O)N1c2ccccc2C=Cc2ccccc21 [[CBZ + 3AcAmBA] (1:1)]
Scc, solubility of the cocrystal ([3]; pH 2): (1.30 ± 0.03)·10^−3 Mol·L^−1
[CF]eu, eutectic concentration of coformer ([3]; pH 2.0, 310.2 K, eutectic point): (1.75 ± 0.08)·10^−3 Mol·L^−1
[CBZ]eu, eutectic concentration of CBZ ([3]; pH 2.0, 310.2 K, eutectic point (drug and cocrystal in equilibrium with solution)): (9.8 ± 0.2)·10^−4 Mol·L^−1
Keu, eutectic constant ([3]; pH 2.0, 310.2 K, Keu = [CF]eu/[CBZ]eu): 1.8 ± 0.1
T·ΔformS ([4]; 298.2K): -0.908 ± 0.12 kcal/mol
lnKf ([4]; 298.2K): 1.17 ± 0.02
ΔformG ([4]; 298.2K): -0.696 ± 0.012 kcal/mol
T·ΔformS [4, 7]: -0.908 ± 0.12 kcal/mol
ΔformG [4, 7]: -0.696 ± 0.012 kcal/mol
ΔformH ([4]; 298.2K): -1.6 ± 0.12 kcal/mol
ΔformH [4, 7]: -1.6 ± 0.12 kcal/mol
lnKf ([4]; methanol, 293.15 K): 1.20±0.02
∆formG ([4]; methanol, 293.15 K): -0.7 ± 0.012 kcal/mol
lnKf ([4]; methanol, 298.15 K): 1.17±0.02
∆formG ([4]; methanol, 298.15 K): -0.696 ± 0.012 kcal/mol
lnKf ([4]; methanol, 303.15 K): 1.12±0.02
∆formG ([4]; methanol, 303.15 K): -0.676 ± 0.012 kcal/mol
lnKf ([4]; methanol, 308.15 K): 1.06±0.015
∆formG ([4]; methanol, 308.15 K): -0.65 ± 0.0096 kcal/mol
lnKf ([4]; methanol, 313.15 K): 1.04±0.02
∆formG ([4]; methanol, 313.15 K): -0.643 ± 0.0072 kcal/mol
Ccc,3AcAmBA∙10^2, coformer concentration in equilibrium with cocrystal [1, 6]: 7.0±0.1 mol/l
Ccc,CBZ∙10^2, CBZ concentration in equilibrium with cocrystal [1, 6]: 7.00±0.06 mol/l
Ccc,3AcAmBA∙10^2, coformer concentration in equilibrium with cocrystal [1, 8]: 8.1±0.1 mol/l
Ccc,CBZ∙10^2, CBZ concentration in equilibrium with cocrystal [1, 8]: 8.20±0.10 mol/l
Ccc,3AcAmBA∙10^2, coformer concentration in equilibrium with cocrystal [1, 9]: 9.5±0.1 mol/l
Ccc,CBZ∙10^2, CBZ concentration in equilibrium with cocrystal [1, 9]: 9.50±0.08 mol/l
Ccc,3AcAmBA∙10^2, coformer concentration in equilibrium with cocrystal [1, 10]: 11.1±0.06 mol/l
Ccc,CBZ∙10^2, CBZ concentration in equilibrium with cocrystal [1, 10]: 11.00±0.08 mol/l
Ccc,3AcAmBA∙10^2, coformer concentration in equilibrium with cocrystal [1, 11]: 12.5±0.07 mol/l
Ccc,CBZ∙10^2, CBZ concentration in equilibrium with cocrystal [1, 11]: 12.10±0.08 mol/l
dissolution behaviour / solution stability ([5]; acetonitrile): dissolved incongruently
dissolution behaviour / solution stability ([5]; methanol): dissolve congruently

From PMC10052035, “Virtual Screening, Structural Analysis, and Formation Thermodynamics of Carbamazepine Cocrystals” (Pharmaceutics, 2023)
